In ChEMBL document CHEMBL1201862, “PubChem BioAssay data set” (2004):
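The compound was tested at five concentrations on cells cultured in 96-well plates, with a 48-hour exposure period. At the GI50, growth is halved.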 Calls of active or inactive are those of the source. Rule as the data show it: active = GI50 up to about 1.1 µM and inactive = higher.

How the values were obtained:
Experiment in all cases: NCI tumour cell line growth inhibition, 48 h
SF-295 = test system: SF-295
HT-29 = test system: HT-29
M19-MEL = test system: M19-MEL
KM12 = test system: KM12
EKVX = test system: EKVX
UACC-257 = test system: UACC-257
SW-620 = test system: SW-620
HCC 2998 = test system: HCC 2998
HL-60 = test system: HL-60
LOX IMVI = test system: LOX IMVI
SF-539 = test system: SF-539
A549 = test system: A549
SK-MEL-5 = test system: SK-MEL-5
SK-MEL-28 = test system: SK-MEL-28
HOP-92 = test system: HOP-92
HCT-15 = test system: HCT-15
SK-MEL-2 = test system: SK-MEL-2
NCI/ADR-RES = test system: NCI/ADR-RES
MDA-MB-231 = test system: MDA-MB-231
DU-145 = test system: DU-145

Structure (SMILES) | GI50 (SF-295) | GI50 (HT-29) | GI50 (M19-MEL) | GI50 (KM12) | GI50 (EKVX) | GI50 (UACC-257) | GI50 (SW-620) | GI50 (HCC 2998) | GI50 (HL-60) | GI50 (LOX IMVI) | GI50 (SF-539) | GI50 (A549) | GI50 (SK-MEL-5) | GI50 (SK-MEL-28) | GI50 (HOP-92) | GI50 (HCT-15) [µM] | GI50 (SK-MEL-2) | GI50 (NCI/ADR-RES) | GI50 (MDA-MB-231) | GI50 (DU-145)
CC(C)NCCCC(C)Nc1ccnc2ccc3nn(C)nc3c12 (stereo not given) | 34.6 µM (inactive) | 37.8 µM (inactive) | 84.9 µM (inactive) | 50.8 µM (inactive) | > 100 µM (inactive) | 74.5 µM (inactive) | 38.5 µM (inactive) | 57.9 µM (inactive) | 42.4 µM (inactive) | 33.6 µM (inactive) | 83.2 µM (inactive) | 62.1 µM (inactive) | 38.5 µM (inactive) | – | – | – | – | – | – | –
COc1cc(Cl)cc(N(O)C(C)=O)c1OCc1ccccc1 | 66.2 µM (inactive) | 64.6 µM (inactive) | 70.8 µM (inactive) | > 100 µM (inactive) | 30.9 µM (inactive) | > 100 µM (inactive) | > 100 µM (inactive) | > 100 µM (inactive) | 40.7 µM (inactive) | 77.6 µM (inactive) | 83.4 µM (inactive) | 68.5 µM (inactive) | > 100 µM (inactive) | > 100 µM (inactive) | > 100 µM (inactive) | 51.4 | – | – | – | –
Cc1ccc(NC(=O)C(=O)C2C(=O)NC(=O)NC2=O)c(C)c1 | > 100 µM (inactive) | > 100 µM (inactive) | > 100 µM (inactive) | > 100 µM (inactive) | > 100 µM (inactive) | > 100 µM (inactive) | > 100 µM (inactive) | > 100 µM (inactive) | > 100 µM (inactive) | > 100 µM (inactive) | > 100 µM (inactive) | > 100 µM (inactive) | > 100 µM (inactive) | > 100 µM (inactive) | > 100 µM (inactive) | > 100 | > 100 µM (inactive) | – | – | –
C=C1CC(CC(=O)C(C)CC2CC(=C)C(=O)O2)OC1=O (stereo not given) | > 100 µM (inactive) | 26.2 µM (inactive) | 16.3 µM (inactive) | 10.5 µM (inactive) | 52.2 µM (inactive) | 16.4 µM (inactive) | 11 µM (inactive) | 37.1 µM (inactive) | 14 µM (inactive) | 15.6 µM (inactive) | 18.8 µM (inactive) | 52 µM (inactive) | 33.3 µM (inactive) | 15.8 µM (inactive) | 17.7 µM (inactive) | 18.1 | 9.35 µM (inactive) | – | – | –
Cc1nc(N)sc1C(=O)/C=C/c1ccc([N+](=O)[O-])cc1 | > 100 µM (inactive) | > 100 µM (inactive) | > 100 µM (inactive) | > 100 µM (inactive) | > 100 µM (inactive) | > 100 µM (inactive) | > 100 µM (inactive) | > 100 µM (inactive) | > 100 µM (inactive) | > 100 µM (inactive) | > 100 µM (inactive) | > 100 µM (inactive) | > 100 µM (inactive) | > 100 µM (inactive) | > 100 µM (inactive) | > 100 | > 100 µM (inactive) | – | – | –
CCOC(=O)c1c2ccc(/C=C/C(=O)OC)ccc-2c(C(=O)OCC)c1N | > 100 µM (inactive) | > 100 µM (inactive) | > 100 µM (inactive) | > 100 µM (inactive) | > 100 µM (inactive) | > 100 µM (inactive) | > 100 µM (inactive) | > 100 µM (inactive) | > 100 µM (inactive) | > 100 µM (inactive) | > 100 µM (inactive) | > 100 µM (inactive) | > 100 µM (inactive) | 1.62 µM (inactive) | > 100 µM (inactive) | > 100 | > 100 µM (inactive) | – | – | –
Nc1ccc2ncc(NCc3ccc(F)cc3)nc2c1 | 56.2 µM (inactive) | > 100 µM (inactive) | > 100 µM (inactive) | > 100 µM (inactive) | 62.7 µM (inactive) | > 100 µM (inactive) | > 100 µM (inactive) | > 100 µM (inactive) | 95.9 µM (inactive) | 75 µM (inactive) | 39.6 µM (inactive) | > 100 µM (inactive) | 48.1 µM (inactive) | > 100 µM (inactive) | 53.1 µM (inactive) | > 100 | > 100 µM (inactive) | – | – | –
C[N+](C)(C)CC(=O)N/N=C(\C(=O)Nc1ccc(Cl)cc1)C1C(=O)N(c2ccccc2)N=C1N (stereo not given) | – | > 100 µM (inactive) | > 100 µM (inactive) | > 100 µM (inactive) | > 100 µM (inactive) | > 100 µM (inactive) | > 100 µM (inactive) | > 100 µM (inactive) | > 100 µM (inactive) | > 100 µM (inactive) | > 100 µM (inactive) | > 100 µM (inactive) | > 100 µM (inactive) | > 100 µM (inactive) | > 100 µM (inactive) | > 100 | > 100 µM (inactive) | – | – | –
COC(=O)C(C(=O)Cc1ccccc1[N+](=O)[O-])C(=O)OC | 42.2 µM (inactive) | > 100 µM (inactive) | > 100 µM (inactive) | > 100 µM (inactive) | > 100 µM (inactive) | > 100 µM (inactive) | > 100 µM (inactive) | > 100 µM (inactive) | 54.5 µM (inactive) | > 100 µM (inactive) | > 100 µM (inactive) | > 100 µM (inactive) | > 100 µM (inactive) | > 100 µM (inactive) | > 100 µM (inactive) | > 100 | > 100 µM (inactive) | – | – | –
O=C1C[C@H]2CCCN2[C@@H](c2ccccc2)C1 | > 100 µM (inactive) | > 100 µM (inactive) | > 100 µM (inactive) | > 100 µM (inactive) | > 100 µM (inactive) | > 100 µM (inactive) | > 100 µM (inactive) | > 100 µM (inactive) | > 100 µM (inactive) | > 100 µM (inactive) | > 100 µM (inactive) | > 100 µM (inactive) | > 100 µM (inactive) | > 100 µM (inactive) | > 100 µM (inactive) | > 100 | > 100 µM (inactive) | – | – | –
CSC(=Nc1nnc(-c2ccc([N+](=O)[O-])cc2)s1)SC | 18.5 µM (inactive) | > 100 µM (inactive) | > 100 µM (inactive) | > 94.8 µM (inactive) | 54.5 µM (inactive) | > 93.1 µM (inactive) | > 100 µM (inactive) | > 79.6 µM (inactive) | > 100 µM (inactive) | 31.9 µM (inactive) | 18.1 µM (inactive) | 46.8 µM (inactive) | 55.7 µM (inactive) | 77.4 µM (inactive) | 9.25 µM (inactive) | > 95.5 | 26.7 µM (inactive) | 33.5 µM (inactive) | > 58.5 µM (inactive) | > 100 µM (inactive)
O=C1NC(=O)C2C1c1[nH]c3ccccc3c1C1CCCC12 (stereo not given) | 1.29 µM (inactive) | 2.07 µM (inactive) | 0.971 µM (active) | 2.17 µM (inactive) | 6.76 µM (inactive) | – | 0.951 µM (active) | 6.55 µM (inactive) | 0.573 µM (active) | 3.52 µM (inactive) | 3.03 µM (inactive) | 0.916 µM (active) | 0.893 µM (active) | 4.1 µM (inactive) | – | 1.49 | – | – | – | –
CCCCCCCC(=O)OCC1OC(n2cc(F)c(=O)[nH]c2=O)C(NC(=O)OCc2ccccc2)C(O)C1O (stereo not given) | > 100 µM (inactive) | > 100 µM (inactive) | 56.8 µM (inactive) | 32.4 µM (inactive) | > 100 µM (inactive) | > 100 µM (inactive) | > 100 µM (inactive) | 19.5 µM (inactive) | 40.3 µM (inactive) | 37.1 µM (inactive) | 83.4 µM (inactive) | > 100 µM (inactive) | 1.55 µM (inactive) | > 100 µM (inactive) | 23.8 µM (inactive) | > 100 | 20.4 µM (inactive) | – | – | –
O=C(Nc1cc(Cl)cc(Cl)c1)/C(Cc1nc2ccccc2nc1O)=N/NC(=O)c1ccncc1 | > 100 µM (inactive) | – | > 100 µM (inactive) | > 100 µM (inactive) | > 100 µM (inactive) | > 100 µM (inactive) | > 100 µM (inactive) | > 100 µM (inactive) | > 100 µM (inactive) | > 100 µM (inactive) | > 100 µM (inactive) | > 100 µM (inactive) | > 100 µM (inactive) | – | 14.4 µM (inactive) | > 100 | > 100 µM (inactive) | – | – | –
CC(C)N1CCOC(c2ccc(O)c(O)c2)C1 (stereo not given) | > 100 µM (inactive) | > 100 µM (inactive) | > 100 µM (inactive) | > 100 µM (inactive) | > 100 µM (inactive) | > 100 µM (inactive) | > 100 µM (inactive) | > 100 µM (inactive) | > 100 µM (inactive) | > 100 µM (inactive) | – | > 100 µM (inactive) | > 100 µM (inactive) | > 100 µM (inactive) | > 100 µM (inactive) | > 100 | > 100 µM (inactive) | – | – | –
COC1(C)Cc2c(c(C)c(O)c3c2C(=O)C=C(Cl)C3=O)O1 (stereo not given) | > 100 µM (inactive) | 28.9 µM (inactive) | 16.4 µM (inactive) | > 100 µM (inactive) | > 100 µM (inactive) | > 56.5 µM (inactive) | 19.8 µM (inactive) | > 100 µM (inactive) | 3.48 µM (inactive) | 44.8 µM (inactive) | > 100 µM (inactive) | > 100 µM (inactive) | 40.8 µM (inactive) | 39.7 µM (inactive) | 18.9 µM (inactive) | 45.8 | > 84.1 µM (inactive) | – | 16.1 µM (inactive) | 91.4 µM (inactive)
